Measured values taken from article PMC9944328 (Nature Communications, 2023).

Test system: SSTR2 mutants
Assay: NanoBiT β-arrestin 1 recruitment assay, HEK293 (SSTR2 mutants);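 as to Best-fit Bottom: percent of maximal wild-type SSTR2 response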;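 as to Best-fit Span: percent of maximal wild-type SSTR2 response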;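 as to Best-fit Top: percent of maximal wild-type SSTR2 response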;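 as to Bottom (best-fit): percent of maximal wild-type response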;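 as to Span (best-fit value): percent of maximal wild-type response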;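 as to Span (best-fit): percent of maximal wild-type response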;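 as to Top (best-fit value): percent of maximal wild-type response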;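 as to Top (best-fit): percent of maximal wild-type response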
Format: cell-based, human
Conditions: for Bottom (β-arrestin1 recruitment) / LogEC50 (β-arrestin1 recruitment) / Span (β-arrestin1 recruitment) / Top (β-arrestin1 recruitment): best-fit
Method: The NanoBiT β-arrestin 1 recruitment assays were carried out according to the method described previously. […] Human full-length SSTR wild-type and mutant vectors were C-terminally fused with a 15-amino acid flexible linker and the small fragment (SmBiT). HEK293 cells were seeded into six-well microplates at a density of 1.0 × 10^6 cells/well and cultured for 24 h at 37 °C with 5% CO2. After that, cells were co-transfected with pcDNA3.1+ vectors encoding SSTR wild-type or mutants and human β-arrestin 1. After transfecting for 24 h, the transfected cells were suspended and seeded into white 96-well plates, and then cultured at 37 °C overnight. After that the medium in each well was exchanged for 90 μl of 0.01% bovine serum albumin containing 20 μl of 50 μM coelenterazine h (Carbosynth) diluted in the HBSS assay buffer and incubated for 40 min at room temperature. Then, ligands diluted in the assay buffer was added to each well and the luminescence intensity was measured using the Synergy H1 microplate reader and detected at room temperature in a time period. All data presented are means of at least three independent experiments.

`N#Cc1cccc(-c2ccc3ncc(-c4cc(F)cc(F)c4)c(N4CCC(N)CC4)c3c2)c1O` [paltusotine] was tested, and the “Bottom (best-fit)” value (F127A-1) was -1.415, the “LogEC50 (best-fit)” value (F127A-1) was -6.677 and the “Span (best-fit)” value (F127A-1) was 63.7. For the same compound, the “Top (best-fit)” value (F127A-1) was 62.28, the “Bottom (best-fit)” value (F127A-2) was -1.034 and the “LogEC50 (best-fit)” value (F127A-2) was -6.706. For the same compound, the “Span (best-fit)” value (F127A-2) was 59.48, the “Top (best-fit)” value (F127A-2) was 58.45 and the “Bottom (best-fit)” value (F127A-3) was -1.184. For the same compound, the “LogEC50 (best-fit)” value (F127A-3) was -6.817, the “Span (best-fit)” value (F127A-3) was 69.08 and the “Top (best-fit)” value (F127A-3) was 67.89. The “β-arrestin recruitment of mutant” value (F294(7.35)A) was “slightly influenced the β-arrestin pathway”, the “β-arrestin recruitment of mutants” value (I284ECL3A, K291(7.32)A and N276(6.55)A) was “slightly enhanced recruitment of β-arrestin” and the “Best-fit Bottom” value (SSTR2 I284A, run 1) was -1.437. For the same compound, the “Best-fit LogEC50” value (SSTR2 I284A, run 1) was -6.742, the “Best-fit Span” value (SSTR2 I284A, run 1) was 206.6 and the “Best-fit Top” value (SSTR2 I284A, run 1) was 205.2. The “Best-fit Bottom” value (SSTR2 I284A, run 2) was -1.082, the “Best-fit LogEC50” value (SSTR2 I284A, run 2) was -6.742 and the “Best-fit Span” value (SSTR2 I284A, run 2) was 155.6. The “Best-fit Top” value (SSTR2 I284A, run 2) was 154.5, the “Best-fit Bottom” value (SSTR2 I284A, run 3) was -1.233 and the “Best-fit LogEC50” value (SSTR2 I284A, run 3) was -6.745. For the same compound, the “Best-fit Span” value (SSTR2 I284A, run 3) was 219.6, the “Best-fit Top” value (SSTR2 I284A, run 3) was 218.3 and the “Bottom (best-fit value)” value (SSTR2 W269A, run W269A-1) was -0.1166. For the same compound, the “LogEC50 (best-fit value)” value (SSTR2 W269A, run W269A-1) was -6.523, the “Span (best-fit value)” value (SSTR2 W269A, run W269A-1) was 23.55 and the “Top (best-fit value)” value (SSTR2 W269A, run W269A-1) was 23.43. For the same compound, the “Bottom (best-fit value)” value (SSTR2 W269A, run W269A-2) was -0.1813, the “LogEC50 (best-fit value)” value (SSTR2 W269A, run W269A-2) was -6.214 and the “Span (best-fit value)” value (SSTR2 W269A, run W269A-2) was 28.45. The “Top (best-fit value)” value (SSTR2 W269A, run W269A-2) was 28.27, the “Bottom (best-fit value)” value (SSTR2 W269A, run W269A-3) was 0.3375 and the “LogEC50 (best-fit value)” value (SSTR2 W269A, run W269A-3) was -6.325. For the same compound, the “Span (best-fit value)” value (SSTR2 W269A, run W269A-3) was 20.32, the “Top (best-fit value)” value (SSTR2 W269A, run W269A-3) was 20.66 and the “Best-fit Bottom” value (SSTR2 Y50A, run 1) was -1.913. The “Best-fit LogEC50” value (SSTR2 Y50A, run 1) was -7.128, the “Best-fit Span” value (SSTR2 Y50A, run 1) was 70.62 and the “Best-fit Top” value (SSTR2 Y50A, run 1) was 68.71. The “Best-fit Bottom” value (SSTR2 Y50A, run 2) was -2.472, the “Best-fit LogEC50” value (SSTR2 Y50A, run 2) was -7.187 and the “Best-fit Span” value (SSTR2 Y50A, run 2) was 103.4. For the same compound, the “Best-fit Top” value (SSTR2 Y50A, run 2) was 100.9, the “Best-fit Bottom” value (SSTR2 Y50A, run 3) was -2.529 and the “Best-fit LogEC50” value (SSTR2 Y50A, run 3) was -7.176. The “Best-fit Span” value (SSTR2 Y50A, run 3) was 105.2, the “Best-fit Top” value (SSTR2 Y50A, run 3) was 102.6 and the “Bottom (best-fit value)” value (SSTR2 Y205A, run Y205A-1) was -3.142. For the same compound, the “LogEC50 (best-fit value)” value (SSTR2 Y205A, run Y205A-1) was -6.819, the “Span (best-fit value)” value (SSTR2 Y205A, run Y205A-1) was 125.5 and the “Top (best-fit value)” value (SSTR2 Y205A, run Y205A-1) was 122.3. For the same compound, the “Bottom (best-fit value)” value (SSTR2 Y205A, run Y205A-2) was -4.259, the “LogEC50 (best-fit value)” value (SSTR2 Y205A, run Y205A-2) was -6.824 and the “Span (best-fit value)” value (SSTR2 Y205A, run Y205A-2) was 138.9. The “Top (best-fit value)” value (SSTR2 Y205A, run Y205A-2) was 134.6, the “Bottom (best-fit value)” value (SSTR2 Y205A, run Y205A-3) was -4.015 and the “LogEC50 (best-fit value)” value (SSTR2 Y205A, run Y205A-3) was -6.671. For the same compound, the “Span (best-fit value)” value (SSTR2 Y205A, run Y205A-3) was 203.2, the “Top (best-fit value)” value (SSTR2 Y205A, run Y205A-3) was 199.2 and the “β-arrestin signal of mutant” value (V103(2.64)A) was “markedly reduced the paltusotine-induced β-arrestin signal”. For the same compound, the “Bottom (β-arrestin1 recruitment)” value (D295A-1) was 0.727, the “LogEC50 (β-arrestin1 recruitment)” value (D295A-1) was -5.635 and the “Span (β-arrestin1 recruitment)” value (D295A-1) was 100. For the same compound, the “Top (β-arrestin1 recruitment)” value (D295A-1) was 100.7, the “Bottom (β-arrestin1 recruitment)” value (D295A-2) was 1.431 and the “LogEC50 (β-arrestin1 recruitment)” value (D295A-2) was -5.595. For the same compound, the “Span (β-arrestin1 recruitment)” value (D295A-2) was 100.8, the “Top (β-arrestin1 recruitment)” value (D295A-2) was 102.3 and the “Bottom (β-arrestin1 recruitment)” value (D295A-3) was 0.3814. For the same compound, the “LogEC50 (β-arrestin1 recruitment)” value (D295A-3) was -5.706, the “Span (β-arrestin1 recruitment)” value (D295A-3) was 93.14 and the “Top (β-arrestin1 recruitment)” value (D295A-3) was 93.53. The “Bottom (β-arrestin1 recruitment)” value (F294A-1) was -2.632, the “LogEC50 (β-arrestin1 recruitment)” value (F294A-1) was -5.979 and the “Span (β-arrestin1 recruitment)” value (F294A-1) was 125.8. The “Top (β-arrestin1 recruitment)” value (F294A-1) was 123.2, the “Bottom (β-arrestin1 recruitment)” value (F294A-2) was -1.982 and the “LogEC50 (β-arrestin1 recruitment)” value (F294A-2) was -5.979. The “Span (β-arrestin1 recruitment)” value (F294A-2) was 94.75, the “Top (β-arrestin1 recruitment)” value (F294A-2) was 92.77 and the “Bottom (β-arrestin1 recruitment)” value (F294A-3) was -2.454. For the same compound, the “LogEC50 (β-arrestin1 recruitment)” value (F294A-3) was -6.059, the “Span (β-arrestin1 recruitment)” value (F294A-3) was 130.8 and the “Top (β-arrestin1 recruitment)” value (F294A-3) was 128.3. The “Bottom (β-arrestin1 recruitment)” value (K291A-1) was -2.723, the “LogEC50 (β-arrestin1 recruitment)” value (K291A-1) was -7.098 and the “Span (β-arrestin1 recruitment)” value (K291A-1) was 158. For the same compound, the “Top (β-arrestin1 recruitment)” value (K291A-1) was 155.2 and the “Bottom (β-arrestin1 recruitment)” value (K291A-2) was -3.352.
